# According to US12448369B2 (Edgewise Therapeutics, Inc., priority 2023, dated 2025):
# How the values were obtained:
# [1] = test system: Rabbit Psoas myofibrils (skeletal myosin ATPase); assay: Myofibril ATPase assay, rabbit psoas (skeletal) myofibrils; format: biochemical; conditions: rabbit psoas myofibrils; Y75 value
# How it was run: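 Rabbit psoas skeletal myofibrils in PIPES/CaCl2/EGTA pCa buffer, pH 7.0. ATPase rate followed by PK-LDH-coupled NADH loss at 340 nm, read every 1.5–2 min for 75 min. Slopes normalized to vehicle (100%) and fitted to a 4-parameter logistic; values are Y75 (25% inhibition) or Y125 (25% activation) concentrations.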
# [2] = target: T1, Porcine ventricle myofibrils (ventricular myosin ATPase) (Sus scrofa, UniProt P79293); assay: Myofibril ATPase assay, porcine ventricle myofibrils; format: biochemical, porcine (Yucatan minipigs); conditions: porcine ventricle myofibrils; Y75 value
# T1 construct: Myofibrils from porcine cardiac muscle was isolated from the left ventricle of Yucatan minipigs; tissue Exemplar Genetics; host or cells: left ventricle of Yucatan minipigs, myofibrils prepared in house
# How it was run: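 In a coupled enzyme format, ADP from myofibril ATPase drives NADH oxidation, monitored kinetically at 340 nm for 75 min using minipig ventricle myofibrils. Effective concentrations giving 25% loss or gain of activity relative to vehicle were calculated from 4-parameter fits.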
# [3] = test system: Porcine atria myofibrils (atrial myosin ATPase); assay: Myofibril ATPase assay, porcine atria myofibrils; format: biochemical; conditions: porcine atria myofibrils; Y75 value (75% activity relative to no compound)
# How it was run: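 Coupled PK-LDH reaction links ADP from myosin ATPase to NADH loss, read at 340 nm every 1.5-2 min for 75 min. Slopes (mAU/min) normalized to vehicle-only wells (100%) and fit to a 4-parameter logistic; Y75 is the concentration cutting activity by 25%, Y125 is reported for activators.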
# T1 sequence (P79293 whole entry): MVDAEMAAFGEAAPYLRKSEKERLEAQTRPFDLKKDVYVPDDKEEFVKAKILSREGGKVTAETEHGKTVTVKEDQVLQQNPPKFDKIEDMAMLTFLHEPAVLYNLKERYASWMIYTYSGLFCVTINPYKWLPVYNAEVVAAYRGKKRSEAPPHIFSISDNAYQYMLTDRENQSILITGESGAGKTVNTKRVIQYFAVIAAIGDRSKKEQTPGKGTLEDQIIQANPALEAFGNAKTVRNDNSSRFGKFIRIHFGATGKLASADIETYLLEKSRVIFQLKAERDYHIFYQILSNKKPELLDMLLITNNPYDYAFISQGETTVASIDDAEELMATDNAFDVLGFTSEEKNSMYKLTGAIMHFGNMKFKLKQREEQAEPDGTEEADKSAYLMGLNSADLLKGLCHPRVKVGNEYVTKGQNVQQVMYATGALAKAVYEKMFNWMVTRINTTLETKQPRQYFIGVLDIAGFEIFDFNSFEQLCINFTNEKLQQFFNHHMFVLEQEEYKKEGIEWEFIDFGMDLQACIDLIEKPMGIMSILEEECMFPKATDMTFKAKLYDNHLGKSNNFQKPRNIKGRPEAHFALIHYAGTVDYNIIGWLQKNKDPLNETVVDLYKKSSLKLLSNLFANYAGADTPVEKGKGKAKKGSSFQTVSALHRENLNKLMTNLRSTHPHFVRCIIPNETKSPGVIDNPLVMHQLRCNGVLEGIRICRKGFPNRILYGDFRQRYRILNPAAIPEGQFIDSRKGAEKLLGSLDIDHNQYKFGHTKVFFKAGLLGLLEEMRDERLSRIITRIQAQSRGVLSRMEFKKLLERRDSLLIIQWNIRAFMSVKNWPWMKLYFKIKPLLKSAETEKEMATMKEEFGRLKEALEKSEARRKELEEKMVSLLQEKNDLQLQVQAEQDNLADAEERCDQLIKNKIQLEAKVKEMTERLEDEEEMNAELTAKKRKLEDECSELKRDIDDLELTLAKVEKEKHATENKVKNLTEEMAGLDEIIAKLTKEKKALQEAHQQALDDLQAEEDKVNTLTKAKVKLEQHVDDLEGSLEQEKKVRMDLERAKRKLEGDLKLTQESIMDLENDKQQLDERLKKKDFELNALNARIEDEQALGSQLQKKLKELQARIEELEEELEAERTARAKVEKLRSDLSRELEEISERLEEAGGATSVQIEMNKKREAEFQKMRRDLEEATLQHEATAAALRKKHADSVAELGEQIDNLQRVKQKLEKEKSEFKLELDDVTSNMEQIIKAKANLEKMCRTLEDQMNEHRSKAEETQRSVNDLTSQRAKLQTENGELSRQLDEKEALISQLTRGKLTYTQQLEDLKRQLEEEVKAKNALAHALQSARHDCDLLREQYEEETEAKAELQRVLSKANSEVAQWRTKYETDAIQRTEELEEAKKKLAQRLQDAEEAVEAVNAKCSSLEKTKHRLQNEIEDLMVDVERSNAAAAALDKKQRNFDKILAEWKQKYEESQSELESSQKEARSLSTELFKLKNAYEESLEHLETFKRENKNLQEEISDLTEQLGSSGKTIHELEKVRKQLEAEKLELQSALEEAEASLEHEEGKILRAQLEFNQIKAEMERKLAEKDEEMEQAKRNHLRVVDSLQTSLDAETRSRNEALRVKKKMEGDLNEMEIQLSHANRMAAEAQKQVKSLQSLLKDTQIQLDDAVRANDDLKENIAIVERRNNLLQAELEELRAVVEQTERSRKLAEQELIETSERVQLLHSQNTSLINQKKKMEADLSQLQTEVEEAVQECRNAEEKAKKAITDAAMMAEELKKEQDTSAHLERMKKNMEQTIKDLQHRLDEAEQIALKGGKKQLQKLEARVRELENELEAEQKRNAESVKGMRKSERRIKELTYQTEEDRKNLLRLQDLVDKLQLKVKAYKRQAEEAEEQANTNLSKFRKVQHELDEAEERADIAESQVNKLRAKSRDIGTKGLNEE
Skeletal EC25 [1],Ventricular EC25 [2],Atrial EC25 [3],Structure (SMILES)
0.01 µM,0.14 µM,0.03 µM,"Cc1c(CC(=O)N[C@@H](C)c2ccc(C#N)cc2F)c(=O)[nH]c2ccc(C(F)(F)F)nc12 (single isomer, unassigned) [compound 209]"
2.21 µM,35.35 µM,14.71 µM,"Cc1c(CC(=O)N[C@@H]2COc3cccnc32)c(=O)[nH]c2ccnc(C#N)c12 (single isomer, unassigned) [compound 212]"
7.67 µM,100.00 µM,100.00 µM,"Cc1c(CC(=O)N[C@H]2COc3cccnc32)c(=O)[nH]c2ccnc(C#N)c12 (single isomer, unassigned) [compound 213]"
23.30 µM,100.00 µM,100.00 µM,"Cc1c(CC(=O)N[C@H](C)c2ccc(S(C)(=O)=O)cc2F)c(=O)[nH]c2ccnc(C#N)c12 (single isomer, unassigned) [compound 214]"
100.00 µM,100.00 µM,100.00 µM,"Cc1c(CC(=O)N[C@@H](C)c2ccc(S(C)(=O)=O)cc2F)c(=O)[nH]c2ccnc(C#N)c12 (single isomer, unassigned) [compound 215]"
100.00 µM,100.00 µM,100.00 µM,"Cc1c(CC(=O)N[C@H](C)c2ncc(F)cc2F)c(=O)[nH]c2ccc(O)nc12 (single isomer, unassigned) [compound 222]"
16.17 µM,61.19 µM,12.99 µM,"Cc1c(CC(=O)N[C@@H](C)c2ncc(F)cc2F)c(=O)[nH]c2ccc(O)nc12 (single isomer, unassigned) [compound 223]"
0.36 µM,100.00 µM,6.57 µM,"Cc1c(CC(=O)N[C@H](CO)c2ccc(C#N)cc2F)c(=O)[nH]c2ccnc(C(F)(F)F)c12 (single isomer, unassigned) [compound 224]"
0.03 µM,2.46 µM,0.08 µM,"Cc1c(CC(=O)N[C@@H](CO)c2ccc(C#N)cc2F)c(=O)[nH]c2ccnc(C(F)(F)F)c12 (single isomer, unassigned) [compound 225]"
0.27 µM,100.00 µM,7.58 µM,"Cc1c(CC(=O)N[C@H](C)c2ncc(C#N)cc2F)c(=O)[nH]c2ccnc(C(F)(F)F)c12 (single isomer, unassigned) [compound 226]"
0.07 µM,0.62 µM,0.09 µM,"Cc1c(CC(=O)N[C@@H](C)c2ncc(C#N)cc2F)c(=O)[nH]c2ccnc(C(F)(F)F)c12 (single isomer, unassigned) [compound 227]"
5.72 µM,100.00 µM,100.00 µM,"Cc1nccc2[nH]c(=O)c(CC(=O)N[C@@H]3CCc4cc(C#N)cnc43)c(C)c12 (single isomer, unassigned) [compound 233]"
20.28 µM,100.00 µM,100.00 µM,"Cc1nccc2[nH]c(=O)c(CC(=O)N[C@H]3CCc4cc(C#N)cnc43)c(C)c12 (single isomer, unassigned) [compound 234]"
100.00 µM,100.00 µM,100.00 µM,"Cc1c(CC(=O)N[C@H](CO)c2ncccc2F)c(=O)[nH]c2ccnc(C#N)c12 (single isomer, unassigned) [compound 235]"
0.59 µM,100.00 µM,38.11 µM,"Cc1c(CC(=O)N[C@@H](CO)c2ncccc2F)c(=O)[nH]c2ccnc(C#N)c12 (single isomer, unassigned) [compound 236]"
2.87 µM,11.53 µM,8.52 µM,"Cc1nccc2[nH]c(=O)c(CC(=O)N[C@H](CO)c3ccc(C#N)cc3F)c(C)c12 (single isomer, unassigned) [compound 238]"
0.17 µM,4.21 µM,0.69 µM,"Cc1c(CC(=O)N[C@H](CO)c2ccc(C#N)cc2F)c(=O)[nH]c2ccnc(C#N)c12 (single isomer, unassigned) [compound 241]"
0.02 µM,0.52 µM,0.09 µM,"Cc1c(CC(=O)N[C@@H](CO)c2ccc(C#N)cc2F)c(=O)[nH]c2ccnc(C#N)c12 (single isomer, unassigned) [compound 242]"
0.17 µM,2.20 µM,0.56 µM,"Cc1nccc2[nH]c(=O)c(CC(=O)N[C@@H](CO)c3ccc(C#N)cc3F)c(C)c12 (single isomer, unassigned) [compound 243]"
0.93 µM,9.46 µM,8.37 µM,"Cc1c(CC(=O)N[C@H](CO)c2ncc(C#N)cc2F)c(=O)[nH]c2ccnc(C#N)c12 (single isomer, unassigned) [compound 245]"
0.03 µM,0.15 µM,0.13 µM,"Cc1c(CC(=O)N[C@@H](CO)c2ncc(C#N)cc2F)c(=O)[nH]c2ccnc(C#N)c12 (single isomer, unassigned) [compound 246]"
4.60 µM,100.00 µM,34.93 µM,"Cc1nccc2[nH]c(=O)c(CC(=O)N[C@H](CO)c3ncc(C#N)cc3F)c(C)c12 (single isomer, unassigned) [compound 247]"
0.17 µM,3.01 µM,0.86 µM,"Cc1nccc2[nH]c(=O)c(CC(=O)N[C@@H](CO)c3ncc(C#N)cc3F)c(C)c12 (single isomer, unassigned) [compound 248]"
100.00 µM,100.00 µM,100.00 µM,"Cc1c(CC(=O)N[C@H](C)c2ncc(F)cc2F)c(=O)[nH]c2ccc(C#N)nc12 (single isomer, unassigned) [compound 249]"
16.64 µM,80.59 µM,2.60 µM,"Cc1c(CC(=O)N[C@@H](C)c2ncc(F)cc2F)c(=O)[nH]c2ccc(C#N)nc12 (single isomer, unassigned) [compound 250]"
100.00 µM,100.00 µM,100.00 µM,"Cc1nccc2[nH]c(=O)c(CC(=O)N[C@@H]3COc4cccnc43)c(C)c12 (single isomer, unassigned) [compound 251]"
100.00 µM,100.00 µM,100.00 µM,"Cc1nccc2[nH]c(=O)c(CC(=O)N[C@H]3COc4cccnc43)c(C)c12 (single isomer, unassigned) [compound 252]"
100.00 µM,100.00 µM,100.00 µM,"Cc1nccc2[nH]c(=O)c(CC(=O)N[C@H](C)c3ccc(C#N)cn3)c(C)c12 (single isomer, unassigned) [compound 253]"
